Source: patent publication EP0781268B1, “DERIVATIVES OF 2-AMINO-1,2,3,4-TETRAHYDRONAPHTHALENE ACTIVE ON THE CARDIOVASCULAR SYSTEM” (ZAMBON GROUP S.p.A., priority 1994, dated 1996)
Structures can show the parent of a compound that is named as a salt.

Experiments:
[1] = target: T1, D1 receptor (Rattus norvegicus, UniProt P18901); experiment: biochemical; format: binding; conditions: rat striated membranes; 0.2 nM [3H]-SCH23390; 37°C for 20 minutes; read-out: Affinity [K1 (nM)] D1 [^3H]-SCH23390
T1 construct: from tissue; host or cells: rat brain striatum membranes
T1 sequence (P18901 whole entry): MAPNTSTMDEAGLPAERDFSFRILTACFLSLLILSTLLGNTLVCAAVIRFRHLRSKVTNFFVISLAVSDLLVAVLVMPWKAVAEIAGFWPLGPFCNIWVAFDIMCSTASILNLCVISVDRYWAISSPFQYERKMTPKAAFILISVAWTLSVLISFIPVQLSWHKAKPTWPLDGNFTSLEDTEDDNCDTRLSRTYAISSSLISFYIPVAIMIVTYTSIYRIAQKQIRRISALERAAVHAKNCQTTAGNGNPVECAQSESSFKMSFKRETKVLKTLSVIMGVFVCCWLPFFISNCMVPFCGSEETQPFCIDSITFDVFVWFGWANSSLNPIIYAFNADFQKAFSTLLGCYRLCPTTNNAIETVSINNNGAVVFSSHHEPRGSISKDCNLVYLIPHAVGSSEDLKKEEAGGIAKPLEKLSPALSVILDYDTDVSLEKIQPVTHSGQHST
Procedure: The conditions of standard incubation (volume 1000 µl) for the test in which [^3H]-SCH23390 was used were the following: 50 mM Tris/HCl buffer (pH.7.4), 0.2 nM [^3H]-SCH23390, a membrane preparation of 130-140 µg proteins/ml.
The mixture was incubated with different concentrations of the tested compounds at 37°C for 20 minutes, filtered under vacuum through Whatman GF/C filters and then washed 4 times with 5 ml of 50 mM Tris/HCl buffer (pH 7.4) cooled with ice.

[2] = target: T2, D2 receptor (Rattus norvegicus, UniProt P61169); experiment: biochemical; format: binding; conditions: rat striated membranes; [3H]-domperidone 0.3 nM; BSA 0.01%; 37°C for 30 minutes; read-out: Affinity [K1 (nM)] D2 [^3H]-domperidone
T2 construct: from tissue; host or cells: rat brain striatum membranes
T2 sequence (P61169 whole entry): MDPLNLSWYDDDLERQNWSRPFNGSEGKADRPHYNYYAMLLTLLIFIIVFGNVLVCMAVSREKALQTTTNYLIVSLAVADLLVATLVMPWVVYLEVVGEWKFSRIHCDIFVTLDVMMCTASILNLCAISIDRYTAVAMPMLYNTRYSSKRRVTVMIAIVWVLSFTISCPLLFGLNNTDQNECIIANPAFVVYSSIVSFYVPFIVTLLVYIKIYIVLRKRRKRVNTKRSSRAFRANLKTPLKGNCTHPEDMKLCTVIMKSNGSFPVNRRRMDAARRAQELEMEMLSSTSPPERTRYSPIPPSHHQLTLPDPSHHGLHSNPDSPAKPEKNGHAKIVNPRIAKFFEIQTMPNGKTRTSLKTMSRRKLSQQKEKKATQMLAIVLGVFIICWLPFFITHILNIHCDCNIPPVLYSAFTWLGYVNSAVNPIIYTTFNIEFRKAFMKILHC
Procedure: The tissue were homogenized in 50 mM Tris/HCl buffer at pH 7.4 (1:100 w/v).
The homogenate was centrifuged and the pellet resuspended, recentrifuged and resuspended again in 50 mM Tris/HCl buffer at pH 7.4 containing 120 mM NaCl, 5mM KCl, 2 mM CaCl2 and 1 mM MgCl2.
Furthermore, bovine serum albumine (BSA) (0.01%) was added.
The mixture was incubated at 37°C for 30 minutes for each concentration of tested compounds.

[3] = system: D1-like (RSA); experiment: D1-like activity in the Rabbit Splenic Artery (RSA) test, isolated arterial rings; conditions: agonist activity; arterial preparations contracted with U46619 0.1 µM; compounds cumulatively administered
Procedure: Arterial rings were prepared according to Semeraro et al., Naunyn. Schmied. Arch. Pharmacol., 1990, 342 539. […] The tested compounds were cumulatively administered. Dopamine and dopexamine were used as reference substances.

[4] = system: D2-like (REA); experiment: D2-like activity in the Rabbit Ear Artery (REA) test, isolated arterial rings; set-up: species or system Male New Zealand rabbits; conditions: agonist activity; electrically stimulated ear artery rings (10 Hz, 1 msec, 40-80 mA); compounds cumulatively administered
Procedure: Arterial rings were prepared according to the method described by […] al., Science, 1978, 443 199, modified as follows. Male New Zealand rabbits weighing 2.5-3 Kg were sacrificed by intravenous injection of an excess of pentobarbital sodium and exsanguinated. The two ears were taken away and the central ear artery was dissected into 3 mm long rings. These preparations were set up in a 25 ml organ bath containing Krebs solution (mM/l): NaCl 118, KCl 4.7, CaCl2 2.5, MgSO4 1.2, NaHCO3 25, KH2PO4 1.2, glucose 11.1, equilibrated with 95% O2-5% CO2 and maintained at 35±1°C. Krebs solution was medicated with EDTA (10 μM) to prevent cathecolamine oxydation, desipramine (0.1 μM) and corticosterone (30 μM), to block neuronal and extraneuronal cathecolamine uptake. The preparations were electrically stimulated (10 Hz, 1 msec, 40-80 mA, 500 msec duration) at 5 minutes intervals. The tested compounds were cumulatively administered. Dopamine and dopexamine were used as reference substances.

[5] = Fitton and Benfield, Drugs, 39(2), 308-330 (1990); cited from earlier work

| Structure (SMILES) | Ki [1] [nM] | Ki [2] [nM] | D1-like (RSA) pD2 [3] | D2-like (REA) pD2 [4] | absorption when administered by oral route [5] |
| --- | --- | --- | --- | --- | --- |
| Br.Br.CCCN(CCCCCCNCCc1cccc(O)c1)[C@H]1CCc2c(ccc(O)c2O)C1 [Compound 1, (S)-N-propyl-N-[6-[2-(3-hydroxyphenyl)ethylamino)-hexyl]-5,6-dihydroxy-1,2,3,4-tetrahydro-2-naphthylamine dihydrobromide] | 21 | 0.5 | 8.1 | 8.8 | – |
| Br.Br.CCCN(CCCCCCNCCc1ccc(O)c(O)c1)[C@H]1CCc2c(O)cccc2C1 [Compound 6, (S)-N-propyl-N-[6-[2-(3,4-dihydroxyphenyl)ethylamino]hexyl]-5-hydroxy-1,2,3,4-tetrahydro-2-naphthylamine dihydrobromide] | – | – | 7.5 | 9.6 | – |
| CCCN(CCCCNCCc1ccccc1)[C@H]1CCc2c(ccc(O)c2O)C1 [Compound 8, (S)-N-propyl-N-[4-(2-phenyletylamino)butyl]-5,6-dihydroxy-1,2,3,4--tetrahydro-2-naphthylamine dihydrobromide] | 361 | 1 | 6.4 | 8.2 | – |
| Br.Br.CCCN(CCCCCCNCCc1ccc(O)cc1)[C@H]1CCc2c(O)cccc2C1 [Compound 9, (S)-N-propyl-N-[6-[2-(4-hydroxyphenyl)ethylamino]hexyl]-5-hydroxy-1,2,3,4-tetrahydro-2-naphthylamine dihydrobromide] | – | – | – | 9.1 | – |
| CCCN(CCCCCCNCCCc1ccccc1)[C@H]1CCc2c(ccc(O)c2O)C1 [Compound 12, (S)-N-propyl-N-[6-(3-phenylpropylamino)hexyl]-5,6-dihydroxy-1,2,3,4--tetrahydro-2-naphthylamine dihydrochloride] | – | – | 7.1 | 8.6 | – |
| Br.Br.CCCN(CCCCCCNCCc1ccc(O)cc1)[C@@H]1CCc2cc(O)c(O)cc2C1 [Compound 14, (R)-N-propyl-N-[6-[2-(4-hydroxyphenyl)ethylamino]hexyl]-6,7-dihydroxy-1,2,3,4-tetrahydro-2-naphthylamine dihydrobromide] | – | – | 7.9 | 9.9 | – |
| NCCc1ccc(O)c(O)c1 [Dopamine, reference compound] | – | – | 6.4 | 7.8 | not absorbed |
| Oc1ccc(CCNCCCCCCNCCc2ccccc2)cc1O [Dopexamine, dopexamine, reference compound] | – | 1220 | 6.1 | 6.3 | not absorbed |

More lines, in order of falling Ki [2], values ahead:

| Ki [1] [nM] | Ki [2] [nM] | Structure (SMILES) | D1-like (RSA) pD2 [3] | D2-like (REA) pD2 [4] | absorption when administered by oral route [5] |
| --- | --- | --- | --- | --- | --- |
| 107 | 0.9 | CCCN(CCCCCCN(CCC)[C@H]1CCc2c(ccc(O)c2O)C1)CCc1ccc(O)cc1 [Compound 18, (S)-N-propyl-N-[2-(4-hydroxyphenyl)ethyl]-N'-propyl-N'-[2-(5,6-dihydroxy-1,2,3,4-tetrahydro)naphthyl]-1,6-hexandiamine dihydrobromide] | 6.6 | 9.2 | – |
| 43 | 0.8 | Br.Br.CCCN(CCCCCCNCCc1ccc(O)c(O)c1)[C@@H]1CCc2cc(O)c(O)cc2C1 [Compound 13, (R)-N-propyl-N-[6-[2-(3,4-dihydroxyphenyl)ethylamino]hexyl]-6,7-dihydroxy-1,2,3,4-tetrahydro-2-naphthylamine dihydrobromide] | 7.7 | 9.4 | – |
| 21 | 0.5 | Br.Br.CCCN(CCCCCCNCCc1ccc(O)c(O)c1)[C@H]1CCc2c(ccc(O)c2O)C1 [Compound 3, (S)-N-propyl-N-[6-[2-(3,4-dihydroxyphenyl)ethylamino)hexyl]-5,6-dihydroxy-1,2,3,4-tetrahydro-2-naphthylamine dihydrobromide] | 8.1 | 9.5 | – |
| 27 | 0.5 | CCCN(CCCCCCCCNCCc1ccc(O)c(O)c1)[C@H]1CCc2c(ccc(O)c2O)C1 [Compound 7, dihydrobromide] | – | – | – |
| 89 | 0.5 | CCCN(CCCCCCNCCc1ccccc1)[C@H]1CCc2cc(O)c(O)cc2C1 [Compound 11, (S)-N-propyl-N-[6-(2-phenylethylamino)hexyl]-6,7-dihydroxy-1,2,3,4--tetrahydro-2-naphthylamine dihydrochloride] | 6.2 | 8.4 | – |
| 33 | 0.4 | Br.Br.CCCN(CCCCCCNCCc1ccccc1O)[C@H]1CCc2c(ccc(O)c2O)C1 [Compound 15, (S)-N-propyl-N-[6-[2-(2-hydroxyphenyl)ethylamino]hexyl]-5,6-dihydroxy-1,2,3,4-tetrahydro-2-naphthylamine dihydrobromide] | 7.3 | 9.2 | – |
| 69 | 0.3 | CCCN(CCCCCCN(C)CCc1ccccc1)[C@H]1CCc2c(ccc(O)c2O)C1 [Compound 5, (S)-N-methyl-N-(2-phenylethyl)-N'-propyl-N'-[2-(5,6-dihydroxy-1,2,3,4-tetrahydro)naphthyl]-1.6-hexandiamine dihydrobromide] | – | – | – |
| 10 | 0.2 | Br.Br.CCCN(CCCCCCNCCc1ccc(O)cc1)[C@H]1CCc2c(ccc(O)c2O)C1 [Compound 2, (S)-N-propyl-N-[6-[2-(4-hydroxyphenyl)ethylamino)hexyl]-5,6-dihydroxy-1,2,3,4-tetrahydro-2-naphthylamine dihydrobromide] | 8.4 | 8.8 | – |
| 33 | 0.1 | Br.Br.CCCN(CCCCCCNCCc1cc(O)cc(O)c1)[C@H]1CCc2c(ccc(O)c2O)C1 [Compound 4, (S)-N-propyl-N-[6-[2-(3,5-dihydroxyphenyl)ethylamino)hexyl]-5,6-dihydroxy-1,2,3,4-tetrahydro-2-naphthylamine dihydrobromide] | 8.5 | 10.6 | – |
| 40 | 0.1 | CCCN(CCCCCCNCCc1ccccc1)[C@H]1CCc2c(ccc(O)c2O)C1.Cl.Cl [Compound 10, (S)-N-propyl-N-[6-(2-phenylethylamino)hexyl]-5,6-dihydroxy-1,2,3,4-tetrahydro-2-naphthylamine dihydrochloride] | 7.2 | 9.2 | – |
